Laboratory results published in patent US4585777A, “(-)-Trans-4-(4-fluorophenyl)-3-(4-methoxyphenoxy)methylpiperidine for potentiating 5-HT” (A/S Ferrosan, priority 1984, dated 1986).

Tests used:
5-HT uptake = assay: Potentiation of 5-HTP (5-Hydroxytryptophane) induced hypermotility in mice (Procedure/Test 173); 5-HT potentiation or 5-HT uptake-inhibition; type: in vivo, mice (female, NMRI strain); settings: for ED (2-fold activity of controls): Mus musculus, sc, read-out: Test 173: dose increasing the activity to double the activity of controls receiving 5-HTP alone (ED), mice, s.c.; for FG 7080 is better by: 5-HT Potentiation Factor: factor by which FG 7080 is better than the listed compound; for FG 7080 is better by: 5-HT Potentiation %: percent by which FG 7080 is better than the listed compound
Description: (§1) (J. Buus Lassen, European Journal of Pharmacology 47, 351-358 (1978)). See also Squires in Acta Pharmacol. et Toxicol, 1972, 31 Suppl. 1,35 for a description of a further procedure for measurement of the same 5-HT uptake-inhibitory phenomenon.
I. Potentiation of 5-HTP (5-Hydroxytryptophane) induced hypermotility in mice (Procedure 173)
(§2) This behavior is characterized by continuous jerky locomotion, head movements from side to side, abduction of the hind limbs, tremor, and lordosis.
Measurement of the motility after administration of test drugs to 5-HTP-pretreated mice is therefore used as a test for 5-HT-potentiation, which most probably proceeds through an inhibition of 5-HT uptake.
Method: Female mice of the NMRI strain weighing 20-22 g are used. The controls receive 5-HTP 150 mg/kg (15 ml/kg) i.p. (i.p.=intraperitoneally) and thirty (30) minutes later physiological saline (20 ml/kg) s.c. (s.c.=subcutaneously). The motility is measured by an Animex™ motimeter 45-75 minutes after 5-HTP administration. The test animals received test substances s.c. (20 ml/kg) instead of physiological saline. Five groups of two (2) mice are used for control and per dose of each test drug. the test substance is dosed according to the dose scale 1, 1.6, 2.5, 4, 6.3, and 10 mg/kg etc.
The best straight line is fitted through the points in a coordinate system (abscissa log dose, ordinate log activity). […] The activity of controls is investigated in thirty (30) groups of two (2) mice.

[1] = Acute Toxicity in Mice (Procedure/Test 001); type: in vivo; settings: mouse, in vivo, sc, lethality at 24 hours, water-soluble salt
Description: (§3) II. Acute Toxicity in Mice (Procedure 001)
(§4) Results are expressed as LD50 = . . . mg/kg s.c.

mice [2] = assay: in vivo; settings: for TI (Therapeutic Index), 001/173: LD50/ED50, mice s.c.; for FG 7080 is better by: T.I. Factor: factor by which FG 7080 is better than the listed compound; for FG 7080 is better by: T.I. %: percent by which FG 7080 is better than the listed compound
Description: as §1

in vivo = settings: mouse, in vivo, sc, TI (Therapeutic Index), 001/173, LD50/ED50, mice s.c.
Description: as §1

mice [3] = assay: Locomotor activity / behavior in mice after 5-HTP, with or without pretreatment (background of Procedure 173); type: in vivo
Description: as §2
Therefore, increased 5-HT in brain seems to be necessary for development of the abnormal behavior, but catecholamine release is probably not related to hyperactivity.

[4] = References 1-4, cited from earlier work
mice [5] = settings: Reference 6; cited from earlier work
mice [6] = assay: Acute Toxicity in Mice (Procedure/Test 001); type: in vivo; settings: s.c., lethality at 24 hours, water-soluble salt, 1440 min
Description: as §3, §4

[7] = 5-HTP 150 mg/kg i.p. 30 min before, motility 45-75 min after 5-HTP, water-soluble salt
[8] = versus (+) trans isomer FG 8035

## COc1ccc(OC[C@@H]2CN(C)CC[C@H]2c2ccc(F)cc2)cc1 (single isomer, unassigned) [FG 8033, (-)-trans-4-(4-fluorophenyl)-3-[(4-methoxyphenoxy)-methyl]-1-methyl-piperidine]
5-HT uptake; [7]
  ED (2-fold activity of controls): 0.5 mg/kg
[1]
  LD50 at 24 h: 400 mg/kg
Mice [2]
  TI (Therapeutic Index), 001/173: 800

## COc1ccc(OC[C@@H]2CNCC[C@H]2c2ccc(F)cc2)cc1 (single isomer, unassigned) [FG 7080, (-)-trans-4-(4-fluorophenyl)-3-(4-methoxyphenoxy)methylpiperidine]
5-HT uptake; [7]
  ED (2-fold activity of controls): 1 mg/kg
5-HT uptake; Table I comparison
  5-HT potentiation compared with most structurally closely-related compounds, in words: remarkably and unpredictably superior
5-HT uptake; [8]
  times as active in 5-HT potentiation: approximately 22 times
  times as active in 5-HT potentiation, as %: ~2200%
5-HT uptake; versus FG 4996
  superior as to 5-HT potentiation, as %: ~900%
  superior by a factor as to 5-HT potentiation: approximately 9 times
5-HT uptake; versus FG 7006
  5-HT potentiation activity, as %: ~2000%
  5-HT potentiation activity, times as great: approximately 20 times
[1]
  LD50 at 24 h: 1000 mg/kg
Mice [2]
  TI (Therapeutic Index), 001/173: 1000
Mice [2]; Table I comparison
  Therapeutic Index compared with most structurally closely-related compounds, in words: even more remarkably and unpredictably superior
Mice [2]; versus FG 4996
  superior as to Therapeutic Index, as %: > 7100%
  superior by a factor as to Therapeutic Index: greater than 71 times
Mice [2]; versus FG 7006
  Therapeutic Index, as %: > 5500%
  Therapeutic Index, times as great: more than 55 times
Mice [2]; versus FG 8035
  Therapeutic Index, as %: > 4100%
  Therapeutic Index, times as great: more than 41 times

## CN1CC[C@@H](c2ccc(F)cc2)[C@H](COc2ccc3c(c2)OCO3)C1 (single isomer, unassigned) [FG 7043, reference compound]
5-HT uptake; [7]
  ED (2-fold activity of controls): 4 mg/kg
[1]
  LD50 at 24 h: 250 mg/kg
In vivo
  selectivity ratio: 63

## COc1ccc(OC[C@@H]2CN(C)CC[C@H]2c2ccc(F)cc2)cc1.Cl (single isomer, unassigned) [FG 8032, (+)-trans-4-(4-fluorophenyl)-3-[(4-methoxyphenoxy)methyl]-1-methylpiperidine hydrochloride]
5-HT uptake; [7]
  ED (2-fold activity of controls): 23 mg/kg
5-HT uptake
  FG 7080 is better by: 5-HT Potentiation Factor: 23
  FG 7080 is better by: 5-HT Potentiation %: 2300%
[1]
  LD50 at 24 h: 400 mg/kg
Mice [2]
  TI (Therapeutic Index), 001/173: 17
  FG 7080 is better by: T.I. Factor: 58.82
  FG 7080 is better by: T.I. %: 5882%

## N[C@@H](Cc1c[nH]c2ccc(O)cc12)C(=O)O [5-HTP, 5-Hydroxytryptophane]
Mice [3]; 5-HTP 150 mg/kg
  motility / locomotor activity: producing a small decrease of motility
Mice [3]; 5-HTP 600 mg/kg
  motility / locomotor activity: increasing the activity
[4]; high doses, parenteral
  concentration of NA and DA: decrease the concentration of NA and DA
[4]; parenteral treatment
  brain concentration of 5-HT: increases the brain concentration of 5-HT

## NNCc1cccc(O)c1 [3-hydroxybenzylhydrazine]
Mice [5]
  effect of pretreatment on the hyperactivity (5-HTP plus 5-HT-uptake blocker): inhibited it significantly

## COc1ccc(OC[C@@H]2CN(C)CC[C@H]2c2ccc(F)cc2)cc1 (relative stereo) [FG 98-I]
5-HT uptake; [7]
  ED (2-fold activity of controls): 1.3 mg/kg
5-HT uptake
  FG 7080 is better by: 5-HT Potentiation Factor: 1.3
  FG 7080 is better by: 5-HT Potentiation %: 130%
[1]
  LD50 at 24 h: 600 mg/kg
In vivo
  selectivity ratio: 461
Mice [2]
  FG 7080 is better by: T.I. Factor: 2.17
  FG 7080 is better by: T.I. %: 217%

## COc1ccc(OC[C@@H]2CN(C)CC[C@H]2c2ccccc2)cc1 (single isomer, unassigned) [FG 4963, reference compound]
5-HT uptake; [7]
  ED (2-fold activity of controls): 2.8 mg/kg
5-HT uptake
  FG 7080 is better by: 5-HT Potentiation Factor: 2.8
  FG 7080 is better by: 5-HT Potentiation %: 280%
[1]
  LD50 at 24 h: 375 mg/kg
Mice [2]
  TI (Therapeutic Index), 001/173: 134
  FG 7080 is better by: T.I. Factor: 7.46
  FG 7080 is better by: T.I. %: 746%

## COc1ccc(OC[C@@H]2CN(C)CC[C@H]2c2ccccc2)cc1 (relative stereo) [FG 4932, reference compound]
5-HT uptake; [7]
  ED (2-fold activity of controls): 7.7 mg/kg
[1]
  LD50 at 24 h: 100 mg/kg
In vivo
  selectivity ratio: 13

## COc1ccc(OC[C@@H]2CN(C)CC[C@H]2c2ccccc2)cc1 (single isomer, unassigned) [FG 4962, reference compound]
5-HT uptake
  FG 7080 is better by: 5-HT Potentiation Factor: 3.8
  FG 7080 is better by: 5-HT Potentiation %: 380%
5-HT uptake; mice, s.c., 5-HTP 150 mg/kg i.p. 30 min before, motility 45-75 min after 5-HTP, water-soluble salt
  Test 173: dose increasing the activity to double the activity of controls receiving 5-HTP alone (ED): 3.8 mg/kg
Mice [6]
  Test 001: LD50: 200 mg/kg
Mice [2]
  TI (Therapeutic Index), 001/173: 53
  FG 7080 is better by: T.I. Factor: 19.87
  FG 7080 is better by: T.I. %: 1887%

## Fc1ccc([C@@H]2CCNC[C@H]2COc2ccc3c(c2)OCO3)cc1 (single isomer, unassigned) [FG 7051]
[1]
  LD50 at 24 h: 285 mg/kg

## COc1ccc(OC[C@@H]2CNCC[C@H]2c2ccccc2)cc1 (single isomer, unassigned) [FG 4996, reference compound]
5-HT uptake; [7]
  ED (2-fold activity of controls): 9 mg/kg
Mice [6]
  Test 001: LD50: 125 mg/kg
In vivo
  selectivity ratio: 14

## CC(N)(Cc1ccc(O)cc1)C(=O)O (stereo not drawn) [α-methyl-p-tyrosine]
Mice [5]
  effect of pretreatment on the hyperactivity (5-HTP plus 5-HT-uptake blocker): does not influence this hyperactivity

## CC(=O)O.COc1ccc(OC[C@@H]2CNCC[C@H]2c2ccc(F)cc2)cc1 (single isomer, unassigned) [FG 8035, (+)-trans-4-(4-fluorophenyl)-3-((4-methoxyphenoxy)methyl)piperidine acetate]
5-HT uptake; [7]
  ED (2-fold activity of controls): 22 mg/kg
[1]
  LD50 at 24 h: 530 mg/kg
Mice [2]
  TI (Therapeutic Index), 001/173: 24
